Values of other authors as cited in patent US11702451B2, “Method for synthesizing amanitins” (Heidelberg Pharma Research GmbH, priority 2017, dated 2023).

Target: DNA-dependent RNA polymerase II (Homo sapiens, UniProt P24928)
Conditions: background statement, no method given; read-out: KD of the complex between amanitin and RNA-polymerase II

For amanitin, the Kd is listed as 3 nM.
